Assay results reported in patent publication US8785184B2, “Differentiation of human embryonic stem cells” (Janssen Biotech, Inc., priority 2009, dated 2014).

Tests used:
[1] = tested on: human embryonic stem cell line H1; test: Real-time PCR of pancreatic markers at stage 3 day 4 (Example 1); assay type: cell-based
Protocol: Cultures were sampled in duplicate on stage 3 day 4, and analyzed for the expression of pancreatic markers using real-time PCR.
(§1) Cells of the human embryonic stem cell line H1 were cultured on MATRIGEL-coated plates (1:30 dilution), and differentiated into pancreatic endocrine precursor cells using the following protocol: • a.
(§2) Cultures were sampled in duplicate on stage 3 day 4, and analyzed for expression of pancreatic markers using real-time PCR. Cultures also were fixed in parallel for immunofluorescence analysis.

[2] = tested on: human embryonic stem cell line H1; test: Immunofluorescence analysis of cultures at stage 3 day 4 (Example 1); assay type: cell-based
Protocol: as §1, §2

[3] = tested on: human embryonic stem cells line H1; conditions: stage 4 day 3
Protocol: (§3) Briefly, cells of the human embryonic stem cells line H1 were cultured on […]™ coated dishes (1:30 dilution) with RPMI medium+2% BSA+100 ng/ml activin A+20 ng/ml WNT-3a+8 ng/ml of bFGF for one day followed by treatment with RPMI media+2% BSA+100 ng/ml activin A+8 ng/ml of bFGF for an additional two days (Stage 1), then • a. DMEM/F12+2% BSA+50 ng/ml FGF7 for three days (Stage 2), then • b. DMEM-High glucose+1% B27+50 ng/ml FGF7+0.25 μM Cyclopamine-KAAD+2 μM Retinoic acid (RA)+100 ng/ml of Noggin+20 ng/ml Activin A for four days (Stage 3), then • c. DMEM-High glucose+1% B27+100 ng/ml Noggin+1 μM ALK5 inhibitor II for three days (Stage 4), or • d. DMEM-High glucose+1% B27 only for three days (Stage 4).
Pancreatic endocrine precursor cells express NGN3.

[4] = tested on: human embryonic stem cells line H1; conditions: stage 4; immunocytochemistry (FIG. 6)
Protocol: as §3

[5] = 1 μM ALK5 inhibitor II + 100 ng/ml Noggin vs basal medium (FIG. 5)
[6] = 1 μM ALK5 inhibitor II + 100 ng/ml Noggin vs basal medium (FIG. 5 panel b)
[7] = replacement of activin A in treatment 2, four days, stage 3 day 4 (FIG. 4)

With `Cc1cccc(-c2[nH]ncc2-c2ccc3ncccc3n2)n1` [Alk5 inhibitor II, ALK5 inhibitor II] the PDX1 expression ([1]; stage 3 day 4, 1 μM ALK5 inhibitor II added to treatment 1) was “No significant impact”, the “level of expression of NKX6.1” value ([1]; stage 3 day 4, 1 μM ALK5 inhibitor II added to treatment 1, compared with treatment 1) was “decrease” and the “number of NGN3 expressing cells” value ([2]; 1 μM ALK5 inhibitor II added to treatment 1 (Table 1, FIG. 2 panel f)) was “significantly increased”. The NGN3 expression [3, 5] was “significant increase”, the “expression of NEUROD” value [3, 5] was “up regulation” and the “expression of NKX2.2” value [3, 5] was “up regulation”. For the same molecule, the “expression of PAX4” value [3, 5] was “up regulation”, the “expression of PAX6” value [3, 5] was “up regulation” and the “expression of PTF1 alpha” value [3, 5] was “increase”. The “expression of NKX6.1” value [3, 6] was “did not appear to affect”, the “expression of PDX1” value [3, 6] was “did not appear to affect” and the “number of cells positive for NGN3 protein” value [4] was “increase”.

In the case of GDF-8, the PDX1 expression [1, 7] is reported as “No significant impact”, the “expression of NGN3” value [1, 7] is reported as “down-regulation” and the “expression of NKX6.1” value [1, 7] is reported as “increase”.

B1: activin B (protein, UniProt P09529 293-407, looked up)
Inhibin beta B chain: GLECDGRTNLCCRQQFFIDFRLIGWNDWIIAPTGYYGNYCEGSCPAYLAGVPGSASSFHTAVVNQYRMRGLNPGTVNSCCIPTKLSTMSMLYFDDEYNIVKRDVPNMIVEECGCA
modifications: Inhibin beta B chain
notes: TGFβ receptor agonist
In the case of B1, the PDX1 expression [1, 7] is reported as “No significant impact”, the “expression of NGN3” value [1, 7] is reported as “down-regulation” and the “expression of NKX6.1” value [1, 7] is reported as “increase”.

B2: TGFβ2 (protein, UniProt P61812 303-414, looked up)
Transforming growth factor …: ALDAAYCFRNVQDNCCLRPLYIDFKRDLGWKWIHEPKGYNANFCAGACPYLWSSDTQHSRVLSLYNTINPEASASPCCVSQDLEPLTILYYIGKTPKIEQLSNMIVKSCKCS
notes: TGFβ receptor agonist
For B2, the PDX1 expression [1, 7] was “No significant impact”, the “expression of NGN3” value [1, 7] was “down-regulation” and the “expression of NKX6.1” value [1, 7] was “increase”.

B3: GDF-11 (protein, UniProt O95390 299-407, looked up)
Growth/differentiation factor …: NLGLDCDEHSSESRCCRYPLTVDFEAFGWDWIIAPKRYKANYCSGQCEYMFMQKYPHTHLVQQANPRGSAGPCCTPTKMSPINMLYFNDKQQIIYGKIPGMVVDRCGCS
notes: TGFβ receptor agonist
For B3, the PDX1 expression [1, 7] was “No significant impact”, the “expression of NGN3” value [1, 7] was “down-regulation” and the “expression of NKX6.1” value [1, 7] was “increase”.

B4: activin A (protein, UniProt P08476 311-426, looked up)
Inhibin beta A chain: GLECDGKVNICCKKQFFVSFKDIGWNDWIIAPSGYHANYCEGECPSHIAGTSGSSLSFHSTVINHYRMRGHSPFANLKSCCVPTKLRPMSMLYYDDGQNIIKKDIQNMIVEECGCS
modifications: Inhibin beta A chain
notes: TGFβ receptor agonist (R&D Systems)
For B4, the NGN3 expression ([1]; stage 3 day 4, 20 or 50 ng/ml activin A with FGF7, cyclopamine-KAAD, retinoic acid, Noggin (FIG. 1)) was “down-regulation”, the NKX6.1 expression ([1]; stage 3 day 4, 20 or 50 ng/ml activin A with FGF7, cyclopamine-KAAD, retinoic acid, Noggin, compared to cells receiving no activin A (FIG. 1)) was “dramatic increase” and the “expression of NGN3” value ([2]; immunofluorescence (FIG. 2)) was “blocked the expression”. For the same molecule, the “number of NKX6.1 expressing cells” value ([2]; immunofluorescence (FIG. 2), 20 ng/ml activin A added to treatment 1) was “significantly increased”.
